Results taken from patent publication US11312701B2, “Formylpyridine derivative having FGFR4 inhibitory activity, preparation method therefor and use thereof” (Abbisko Therapeutics Co., Ltd., priority 2017, dated 2022).

How the values were obtained:
FGFR4 = FGFR4 (Homo sapiens, UniProt P22455); experiment: FGFR4 Caliper Assay (in vitro biochemical kinase analysis); conditions: Caliper mobility shift, 65 μM ATP, 30° C. 40 minutes; read-out: Enzymatic activity FGFR4 IC50
Procedure: I. In Vitro Biochemical Kinase Analysis of FGFR4
FGFR4 Caliper Assay was used in the present invention to determine the inhibitory activities • of the compounds against FGFR4. The specific experimental procedure was as follows: 1. The kinase reaction in the present invention was carried out in a 384-well plate, and […] of FGFR4, 65 μM of ATP and 1 μM of peptide (5 Fluo Ahx KKKKEEIYFFFG NH2) were respectively added into the following reaction system. • 2. A reaction system is a mixture solution of 50 mM HEPES, pH 7.5, 1 mM DTT, 0.02% Tween 20, 0.02% BSA, 0.6% DMSO, 10 mM beta glycerol phosphate and 10 μM sodium orthovanadate and 16 mM MgCl2. • 3. The reaction system was incubated at 30° C. for 40 minutes. • 4. The reaction was terminated by adding a stop solution (100 mM HEPES, pH 7.5, 5% DMSO, 0.1% Caliper coating reagent, 10 mM EDTA and 0.015% Brij35). • 5. The culture plate with the terminated kinase reaction was transferred to the Caliper LC 3000 workstation to read the data, the phosphorylated and unphosphorylated peptides were separated by using the Caliper microfluid migration shift technique, and the analyte was transferred by allowing a constant buffer flow through the chip, the migration of the substrate peptide was monitored by the labeled fluorescent signal, and the kinase activity was calculated by using the amount of the phosphate-based peptide formed. • 6. Finally, IC50 values were determined by non-linear regression analysis of percent inhibition at different compound concentrations. II. FGFR4 Cell Proliferation Experiment

[1] = test system: Huh7 hepatocellular carcinoma cells; experiment: Cell Titer Glo (CTG) cell proliferation experiment; type: cell-based; conditions: Homo sapiens, 72 h, HuH-7 cells, 3 days; for IC50: concentration leading to absolute half growth inhibition; for EC50: concentration leading to half maximal growth inhibition
Procedure: Cell Titer Glo (CTG) experiment was used in the present invention to evaluate the functional effects of the compounds on cell proliferation. Huh7 hepatocellular carcinoma cells (Catalog No. TChU182) from the Chinese Academy of Sciences cell bank were cultured in DMEM with high glucose (Gibco, cat. No. 1773536), 10% fetal bovine serum (Gibco, 10099-141) at 37° C., in a 5% CO2 incubator. Compound-mediated inhibition of cell proliferation/survival was assessed by quantification of cellular ATP levels using CTG reagent (Promega, #G7573). The specific experimental procedure was as follows: • 1. The cells were seeded into a tissue culture medium-treated 96-well plate (Costar #3904) at 3500 cells/well/90 μL of fresh medium; • 2. 10 μL of medium containing a compound concentration of 10 fold of its final test concentration was added; • 3. The dose effect as evaluated by a 5-fold serial dilution of the test compound, starting from 10 μM. • 4. After cells incubation for 3 days at 37° C. in a 5% CO2 atmosphere, the effect of the inhibitor on cell proliferation was quantified after adding 50 μL of CTG and testing with luminescence. • 5. The concentration of the compound (EC50) leading to half maximal growth inhibition and the concentration of compound (Absolute IC50) leading to absolute half growth inhibition were determined using a four-parameter curve fit in Graphpad Prism in a plate reader (M1000, Tecan).

FGFR4, sequence (P22455 22-802): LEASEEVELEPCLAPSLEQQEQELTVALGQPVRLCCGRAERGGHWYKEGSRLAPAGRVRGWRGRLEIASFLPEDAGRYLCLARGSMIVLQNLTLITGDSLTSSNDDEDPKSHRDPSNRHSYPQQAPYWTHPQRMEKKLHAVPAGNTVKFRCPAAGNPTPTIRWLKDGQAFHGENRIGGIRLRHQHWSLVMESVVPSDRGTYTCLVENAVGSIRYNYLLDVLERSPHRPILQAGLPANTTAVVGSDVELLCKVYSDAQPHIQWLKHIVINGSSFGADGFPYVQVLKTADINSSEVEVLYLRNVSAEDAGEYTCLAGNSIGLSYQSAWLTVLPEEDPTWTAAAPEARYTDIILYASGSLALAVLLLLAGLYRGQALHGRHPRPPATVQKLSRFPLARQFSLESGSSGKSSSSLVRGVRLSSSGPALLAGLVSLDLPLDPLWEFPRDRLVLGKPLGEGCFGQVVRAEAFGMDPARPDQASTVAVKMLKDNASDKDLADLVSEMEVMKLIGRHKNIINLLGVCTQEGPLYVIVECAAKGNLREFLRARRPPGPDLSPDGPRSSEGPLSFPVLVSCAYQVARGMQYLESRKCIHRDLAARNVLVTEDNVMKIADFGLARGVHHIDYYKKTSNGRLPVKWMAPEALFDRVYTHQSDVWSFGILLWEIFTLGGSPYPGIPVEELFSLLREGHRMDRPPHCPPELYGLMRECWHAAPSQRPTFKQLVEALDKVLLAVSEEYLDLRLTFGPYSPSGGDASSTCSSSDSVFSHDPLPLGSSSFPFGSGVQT

IC50 (FGFR4) | IC50 [1] | EC50 [1] | SMILES
 | 206 nM | 76.8 nM | CN1CCN(Cc2ccc(N(C)C(=O)Nc3cc(N4CCC5(CCOC5)C4)c(C#N)cn3)nc2C=O)C(=O)C1 (centres unmarked) [Example 30, 3-(5-cyano-4-(2-oxa-7-azaspiro[4.4]nonan-7-yl)pyridin-2-yl)-1-(6-formyl-5-((4-methyl-2-oxopiperazin-1-yl)methyl)pyridin-2-yl)-1-methylurea]
2.9 nM | 118 nM | 40.8 nM | CC(C)Sc1cc(NC(=O)N(C)c2ccc(CN3CCN(C)CC3=O)c(C=O)n2)ncc1C#N [Example 34, 3-(5-cyano-4-(isopropylthio)pyridin-2-yl)-1-(6-formyl-5-((4-methyl-2-oxopiperazin-1-yl)methyl)pyridin-2-yl)-1-methylurea]
17.1 nM | 410 nM | 190 nM | COCCOc1cc(NC(=O)N(C)c2ccc(CN3CCN(C)CC3=O)c(C=O)n2)ncc1C#N [Example 36, 3-(5-cyano-4-(2-methoxyethoxy)pyridin-2-yl)-1-(6-formyl-5-((4-methyl-2-oxopiperazin-1-yl)methyl)pyridin-2-yl)-1-methylurea]
3.4 nM | 100 nM | 48.8 nM | CN1CCN(Cc2ccc(N(C)C(=O)Nc3cc(OCC4CC4)c(C#N)cn3)nc2C=O)C(=O)C1 [Example 39, 3-(5-cyano-4-(cyclopropylmethoxy)pyridin-2-yl)-1-(6-formyl-5-((4-methyl-2-oxopiperazin-1-yl)methyl)pyridin-2-yl)-1-methylurea]
1.4 nM | 65 nM | 27 nM | CCN(C(=O)Nc1cc(NC2CC2)c(C#N)cn1)c1ccc(CN2CCN(C)CC2=O)c(C=O)n1 [Example 51, 3-(5-cyano-4-(cyclopropylamino)pyridin-2-yl)-1-ethyl-1-(6-formyl-5-((4-methyl-2-oxopiperazin-1-yl)methyl)pyridin-2-yl)urea]
16.3 nM |  |  | N#Cc1cnc(NC(=O)C2(c3cccc(C=O)n3)CC2)cc1NC1CC1 [Example 52, N-(5-cyano-4-(cyclopropylamino)pyridin-2-yl)-1-(6-formylpyridin-2-yl)cyclopropane-1-carboxamide]
8.1 nM | 223 nM | 93 nM | CN1CCN(Cc2ccc(N(C)C(=O)Nc3cc(NC4CC4)c(I)cn3)nc2C=O)C(=O)C1 [Example 56, 3-(4-(cyclopropylamino)-5-iodopyridin-2-yl)-1-(6-formyl-5-((4-methyl-2-oxopiperazin-1-yl)methyl)pyridin-2-yl)-1-methylurea]

Further lines, the compound ahead of its results:

SMILES | IC50 (FGFR4) | IC50 [1] | EC50 [1]
CN1CCN(Cc2ccc(N(C)C(=O)Nc3cc(NC4CC4)c(C#N)cn3)nc2C=O)C(=O)C1 [Example 1, 3-(5-cyano-4-(cyclopropylamino)pyridin-2-yl)-1-(6-formyl-5-((4-methyl-2-oxopiperazin-1-yl)methyl)pyridin-2-yl)-1-methylurea] | 2 nM | 26.2 nM | 8.3 nM
CN1CCN(Cc2ccc(N(C)C(=O)Nc3cc(NCCF)c(C#N)cn3)nc2C=O)C(=O)C1 [Example 2, 3-(5-cyano-4-((2-fluoroethyl)amino)pyridin-2-yl)-1-(6-formyl-5-((4-methyl-2-oxopiperazin-1-yl)methyl)pyridin-2-yl)-1-methylurea] | 8 nM |  | 
CN1CCN(Cc2ccc(N(C)C(=O)Nc3cc(NCC4CC4)c(C#N)cn3)nc2C=O)C(=O)C1 [Example 4, 3-(5-cyano-4-((cyclopropylmethyl)amino)pyridin-2-yl)-1-(6-formyl-5-((4-methyl-2-oxopiperazin-1-yl)methyl)pyridin-2-yl)-1-methylurea] | 3.8 nM | 77.4 nM | 25.6 nM
CN1CCN(Cc2ccc(N(C)C(=O)Nc3cc(NC4CC(F)(F)C4)c(C#N)cn3)nc2C=O)C(=O)C1 [Example 7, 3-(5-cyano-4-((3,3-difluorocyclobutyl)amino)pyridin-2-yl)-1-(6-formyl-5-((4-methyl-2-oxopiperazin-1-yl)methyl)pyridin-2-yl)-1-methylurea] | 2.8 nM | 63.2 nM | 20.4 nM
COC1CC(Nc2cc(NC(=O)N(C)c3ccc(CN4CCN(C)CC4=O)c(C=O)n3)ncc2C#N)C1 (centres unmarked) [Example 8, 3-(5-cyano-4-((3-methoxycyclobutyl)amino)pyridin-2-yl)-1-(6-formyl-5-((4-methyl-2-oxopiperazin-1-yl)methyl)pyridin-2-yl)-1-methylurea] | 5.8 nM |  | 
COC1(C)CN(c2cc(NC(=O)N(C)c3ccc(CN4CCN(C)CC4=O)c(C=O)n3)ncc2C#N)C1 [Example 11, 3-(5-cyano-4-(3-methoxy-3methylazetidin-1-yl)pyridin-2-yl)-1-(6-formyl-5-((4-methyl-2-oxopiperazin-1-yl)methyl)pyridin-2-yl)-1-methylurea] | 6.9 nM | 177 nM | 82.2 nM
CN1CCN(Cc2ccc(N(C)C(=O)Nc3cc(NC4CCOC4)c(C#N)cn3)nc2C=O)C(=O)C1 (centres unmarked) [Example 14, 3-(5-cyano-4-((tetrahydrofuran-3-yl)amino)pyridin-2-yl)-1-(6-formyl-5-((4-methyl-2-oxopiperazin-1-yl)methyl)pyridin-2-yl)-1-methylurea] | 5.7 nM | 57.4 nM | 20.1 nM
CN1CCN(Cc2ccc(N(C)C(=O)Nc3cc(NC4CCC(F)(F)C4)c(C#N)cn3)nc2C=O)C(=O)C1 (centres unmarked) [Example 15, 3-(5-cyano-4-((3,3-difluorocyclopentyl)amino)pyridin-2-yl)-1-(6-formyl-5-((4-methyl-2-oxopiperazin-1-yl)methyl)pyridin-2-yl)-1-methylurea] | 2.3 nM | 48.6 nM | 19.3 nM
COC1CCN(c2cc(NC(=O)N(C)c3ccc(CN4CCN(C)CC4=O)c(C=O)n3)ncc2C#N)C1 (centres unmarked) [Example 17, 3-(5-cyano-4-(3-methoxypyrrolidin-1-yl)pyridin-2-yl)-1-(6-formyl-5-((4-methyl-2-oxopiperazin-1-yl)methyl)pyridin-2-yl)-1-methylurea] | 6.5 nM | 84.9 nM | 38.1 nM
CN1CCN(Cc2ccc(N(C)C(=O)Nc3cc(NCC4CCCO4)c(C#N)cn3)nc2C=O)C(=O)C1 (centres unmarked) [Example 21, 3-(5-cyano-4-(((tetrahydrofuran-2-yl)methyl)amino)pyridin-2-yl)-1-(6-formyl-5-((4-methyl-2-oxopiperazin-1-yl)methyl)pyridin-2-yl)-1-methylurea] | 8 nM | 55.4 nM | 22.7 nM
CN1CCN(Cc2ccc(N(C)C(=O)Nc3cc(N4CCOCC4)c(C#N)cn3)nc2C=O)C(=O)C1 [Example 24, 3-(5-cyano-4-morpholinopyridin-2-yl)-1-(6-formyl-5-((4-methyl-2-oxopiperazin-1-yl)methyl)pyridin-2-yl)-1-methylurea] | 52.2 nM | 1800 nM | 1080 nM
